Test results as given in patent publication US20080318970A1, “Treatment of Infectious Diseases” (priority 2004, published 2008).

Legend:
E. coli, LN 3164 = experiment: MIC susceptibility test, microdilution broth method (NCCLS), chemosensitising compound alone; assay type: cell-based; details: 37° C., 16 h
Protocol: Bacteria were sub-cultured on Mueller-Hinton agar plates and incubated over night at 37° C. Pre-warmed Mueller-Hinton broth was inoculated with colonies from the plate and incubated for approximately three hours to achieve a log phase culture. The log phase culture of bacteria was diluted with fresh pre-warmed medium and adjusted to a defined Optical Density (OD) at 600 nm in order to give a final assay concentration of 1×10^4 bacteria/ml medium.
Cell growth was tested using the MIC susceptibility tests by use of the microdilution broth method in accordance to the NCCLS Guidelines (NCCLS Guidelines, Methods for Dilution Antimicrobial Susceptibility Tests for Bacteria That Grow Aerobically; Approved Standard, Sixth Edition, Volume 23; Number 2). A 100% Mueller-Hinton broth and a bacterial concentration of 1×10^4/ml were used.
A log phase culture of bacteria was diluted with fresh pre-warmed medium and adjusted to a defined OD at 600 nm in order to give a final concentration of 1×10^4 bacteria/ml medium in each well. Each chemosensitising compound was added to the bacterial culture in the wells in two-fold dilutions in order to give final concentrations ranging from 8 to 500 μg/ml. Trays were incubated at 37° C. for 16 h. Minimal Inhibitory Concentration, (MIC) is defined as the lowest inhibitory concentration showing no visible growth according to the NCCLS Guidelines.

E. faecalis F86 = experiment: Checkerboard combination study (FIC index); assay type: cell-based, Enterococcus faecalis; details: anti-infective agent Dicloxacillin; isolate susceptible (S)
Protocol: Enterococcus faecalis, F86. Susceptible clinical isolate. No development of resistance.
(§1) The synergistic effect was studied by checkerboard combination studies exposing cells to 0-64 μg/ml anti-infective agent in the absence or presence of trans-flupenthixol, cis-flupenthixol or trans-clopenthixol. Each experiment was repeated in tripleduplicate. MIC values represent the mean values of two separate experiments,
(§2) A log phase culture of bacteria was diluted with fresh pre-warmed medium and adjusted to a defined OD at 600 nm in order to give a final concentration of 1×10^4 bacteria/ml medium in each well. Each chemosensitising compound was added to the bacterial culture in the wells in two-fold dilutions in order to give final concentrations ranging from 0 to 8 μg/ml. Anti-infective agent was added to the bacterial culture in the wells in two-fold dilutions in order to give final concentrations ranging from 0 to 64 μg/ml Trays were incubated at 37° C. for 16 h. Wells were assessed visually for growth. The Fractional Inhibitory Concentration (FIC) was calculated for each anti-infective agent alone and in combination with trans-flupenthixol, cis-flupenthixol or trans-clopenthixol. The following formulae were used to calculate the FIC index:
(§3) FIC=FICchemosensitising compound+FICanti-infective agent
(§4) FICchemosensitising compound=(MICchemosensitising compound+anti-infective agent)/(MICchemosensitising compound)
(§5) FICanti-infective agent=(MICanti-infective agent+chemosensitising compound/(MICanti-Infective agent)
(§6) Synergy was defined as a FIC index of <0.5.

S. aureus E45 = experiment: Checkerboard combination study (FIC index); assay type: cell-based, Staphylococcus aureus; details: isolate resistant (R)
Protocol: Staphylococcus aureus E45 MRSA. Clinical isolate. Resistant to methicillin. Susceptible to teicoplanin chloramphenicol, fosfomycin, netilmicin and vancomycin.
as §1, §2, §3, §4, §5, §6

E. coli LN 3164 = experiment: Checkerboard combination study (FIC index); assay type: cell-based; details: MDR isolate
Protocol: E. coli, LN 3164. Acr AB-ToIC MDR in vitro-selected mutant. Resistant to tetracycline, beta-lactams, fluoroquinolones, chloramphenicol and aminoglycosides.
as §1, §2, §3, §4, §5, §6

S. aureus O11 = assay type: cell-based
[1] = system: Enterococcus faecalis BG-029; experiment: Mouse peritonitis model, bacterial counts in peritoneal fluid; assay type: in vivo, NMRI mice; details: neutropenic mice; subcutaneous; 6 h; ciprofloxacin 12.5 mg per mouse, trans-clopenthixol 5 mg per kg, alone or combined
Protocol: Female NMRI mice (age, approximately 6 to 8 weeks; weight, 30±2 g) were used for the mouse […] peritonitis model (as described below). Bacterial suspensions were prepared from fresh overnight cultures (made from frozen stock cultures) on 5% blood agar plates as described above. […] The size of the inoculum was determined by viability counting on 5% blood agar. Neutropenia was introduced by pretreating the mice with cyclophosphamide (6 mg daily for three days). […] Inoculated untreated control mice were included in all trials. […] After the mice were killed, peritoneal washes were performed by injecting 2 ml of sterile saline intraperitoneally, followed by massage of the abdomen and then opening of the peritoneum to collect the fluid.

HIV-1 strain HTLV-IIIB = experiment: Inhibition of HIV-1 replication in MT4 cells (MTT assay); assay type: cell-based
Protocol: Each experiment was repeated in tripleduplicate. MIC values represent the mean values of two separate experiments.
The HIV-1 strain HTLV-IIIB were propagated in H9 cells at 37° C., 5% CO2 using RPMI 1640 with 10% heat-inactivated foetal calf serum (FCS) and antibiotics (growth medium). Culture supernatant was filtered ([…]), aliquotted, and stored at −80° C. until use. The HIV-1 strain was obtained from NIH AIDS Research and Reference Program.
(§7) Compounds were examined for possible antiviral activity against strain 111B of HIV-1 using MT4 cells as target cells. MT4 cells were incubated with virus (0.005 MOI) and growth medium containing the test dilutions of compound(s) for six days in parallel with virus-infected and uninfected control cultures without compound added. Expression of HIV in the cultures was indirectly quantified using the MTT assay as previously described. Compounds mediating less than 30% reduction of HIV expression were considered without biological activity. Compounds were tested in parallel for cytotoxic effect in uninfected MT4 cultures containing the test dilutions of compound as described above. Cultures for test of both antiviral activity and cytotoxic effect were set up in tripleduplicates, […] per culture in micro titre plates.
The 50% inhibitory concentration was determined by interpolation from the plots of percent inhibition versus concentration of compound.
EC50 is defined as the effective concentration that inhibits 50% of viral production, 50% of viral infectivity, or 50% of the virus-induced cytopathic effect.

uninfected MT4 cells = experiment: Cytotoxic effect in uninfected MT4 cultures; assay type: cell-based
Protocol: as §7
CC50 is defined as the inhibitory concentration that reduces cellular growth or viability of uninfected cells by 50%.

[2] = alone, at the concentrations used

For `OCCN1CCN(CC/C=C2\c3ccccc3Sc3ccc(Cl)cc32)CC1` [trans-clopenthixol], which MIC (E. coli, LN 3164) is on record?
Its MIC is 16 µg/mL.

What about the FIC index (E. faecalis F86) of the same compound?
Its FIC index is 0.25.

And the FIC index (S. aureus E45; anti-infective agent Dicloxacillin)?
The FIC index was 0.06.

And the FIC index (S. aureus E45; anti-infective agent Fucidic acid)?
The FIC index was 0.06.

And the FIC index (E. coli LN 3164; anti-infective agent Ciprofloxacin)?
Its FIC index is 0.063.

What about the FIC index (E. coli LN 3164; anti-infective agent Gentamicin) of the same compound?
The FIC index was 0.063.

And the FIC index (E. coli LN 3164; anti-infective agent Piperacillin)?
Its FIC index is 0.063.

And the “Frequency on emergence of resistance” value (S. aureus O11; 1 μg of ciprofloxacin per ml (two times the MIC) in the presence of inhibitor (1 μg/ml))?
The value was <1 × 10^−10.

What about the “decrease of the frequency of spontaneous emergence of ciprofloxacin resistance” value (S. aureus O11; inhibitor 1 μg/ml) of the same compound?
Its value is ≥ 100 fold.

What about the “toxic effect of the inhibitor on S. aureus plated in the absence of ciprofloxacin (in words)” value (S. aureus O11; inhibitor 1 μg/ml) of the same compound?
The value was “affected neither the colony-forming ability nor the colony size”.

And the “bactericidal activity in mouse peritoneum (in words)” value [1]?
Its value is “did not affect the bacteria”.

What about the “antiviral effect (in words)” value (HIV-1 strain HTLV-IIIB; [2]) of the same compound?
Its value is “no antiviral or cytotoxic effect”.

What about the EC50 (HIV-1 strain HTLV-IIIB; compound alone, MT4 cells, six days) of the same compound?
Its EC50 is > 3000 nM.

What about the “cytotoxic effect (in words)” value (uninfected MT4 cells; [2]) of the same compound?
The value was “no antiviral or cytotoxic effect”.

And the CC50 (uninfected MT4 cells; compound alone, uninfected MT4)?
Its CC50 is > 3000 nM.
